According to patent US10738031B2, “N-[(heteroaryloxy)propanyl]heteroaryl carboxamides as antagonists of orexin subtype 1 receptor activity” (Boehringer Ingelheim International GmbH, priority 2016, dated 2020):

What was measured:
[1] = Assay C: Human MST t1/2 (stability in human liver microsomes); type: in vitro ADME; settings: human liver microsomes
human orexin 2 receptor = target: T1, human orexin 2 receptor (Homo sapiens, UniProt O43614); assay: Assay B: OX2R IP1 (in vitro OX2R potency); type: cell-based; settings: Table 3; 0.5 nM Orexin A concentration
T1 construct: stably expressing the full-length human orexin 2 receptor; expressed in transfected cells; host or cells: CHO-K1 (CHO-K1/hOX2), co-expressing aequorin
T1 sequence (O43614 1-444): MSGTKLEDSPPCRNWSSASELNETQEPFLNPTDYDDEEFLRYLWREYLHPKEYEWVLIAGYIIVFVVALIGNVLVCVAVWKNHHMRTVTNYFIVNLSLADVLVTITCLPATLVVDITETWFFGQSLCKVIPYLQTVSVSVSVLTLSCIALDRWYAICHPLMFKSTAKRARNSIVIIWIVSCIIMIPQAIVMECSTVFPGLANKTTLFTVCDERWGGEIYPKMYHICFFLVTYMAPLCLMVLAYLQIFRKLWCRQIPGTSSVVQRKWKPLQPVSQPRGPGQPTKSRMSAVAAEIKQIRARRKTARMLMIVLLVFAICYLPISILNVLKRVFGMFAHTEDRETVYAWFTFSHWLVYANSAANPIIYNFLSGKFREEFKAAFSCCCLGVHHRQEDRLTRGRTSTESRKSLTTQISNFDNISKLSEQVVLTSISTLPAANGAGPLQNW
From the text: Activation of the orexin receptors expressed in cell lines results in an increase in intracellular IP3 concentration. IP1, a downstream metabolite of IP3, accumulates in cells following receptor activation and is stable in the presence of LiCl. Using Homogeneous Time-Resolved Fluorescence technology with Lumi4-Tb cryptate (commercially available from Cisbio Bioassay.) and a suitable fluorescence plate reader. This functional response is detectable and quantifiable as described in Trinquet et al. Anal. […] Curr. Chem. Genomics 2009, 3, 22-32. This technique is used to characterize pharmacological modification of the orexin receptors. B. In Vitro Testing of OX2R Potency: OX2R IP1 IP1 measurements are performed in CHO-K1 cells stably expressing the full-length human orexin 2 receptor and the aequorin photoprotein. Cells are cultivated in Ham's nutrient mixture F12 medium with 10% fetal calf serum, in a 37° C., 95% humidity and 5% CO2 incubator. The CHO-K1/hOX2 cell mass is expanded to larger cell numbers. The cells are obtained as frozen cells in cryo-vials and stored until use at -150° C. The viability of the cells after thawing is >90%. In preparation for the assay, 24 hours before the assay, the cells are thawed at 37° C. and immediately diluted with cell culture medium. After centrifugation, the cell pellet is resuspended in medium and then distributed into the assay plates with a density of 5000 cells/25 μL per well. The plates are incubated for one hour at room temperature to reduce edge effects before they are incubated for 24 hours at 37° C./5% CO2. […] On the day of the assay, cells in the plate are washed twice with 60 μL assay buffer (20 μL buffer remained in the wells after washing), followed by adding 5 μL per well of compounds diluted in assay buffer. […] The assay plate is incubated for 60 minutes at 37° C. Then 5 μL per well of Anti-IP1-Cryptate Tb solution and 5 μL per well of IP1-d2 dilution are added to all well of the plate and the plate is incubated for a further 60 minutes light protected at room temperature. […] The ratio between the emission at 665 nm and 615 is calculated by the reader. […] AssayExplorer (Accelrys). In order to establish an agonist concentration independent parameter, Kb values are calculated using the following equation: […] Sci. 1993, 14(4), 110-112).

human Orexin 1 receptor = target: T2, human Orexin 1 receptor (Homo sapiens, UniProt O43613); assay: Assay A: OX1R IP1 (in vitro OX1R potency); type: cell-based; settings: for Kb: Table 3
T2 construct: stably expressing the full-length human Orexin 1 receptor; expressed in transfected cells; host or cells: CHO-K1 (CHO-K1/hOX1), co-expressing aequorin
T2 sequence (O43613 1-425): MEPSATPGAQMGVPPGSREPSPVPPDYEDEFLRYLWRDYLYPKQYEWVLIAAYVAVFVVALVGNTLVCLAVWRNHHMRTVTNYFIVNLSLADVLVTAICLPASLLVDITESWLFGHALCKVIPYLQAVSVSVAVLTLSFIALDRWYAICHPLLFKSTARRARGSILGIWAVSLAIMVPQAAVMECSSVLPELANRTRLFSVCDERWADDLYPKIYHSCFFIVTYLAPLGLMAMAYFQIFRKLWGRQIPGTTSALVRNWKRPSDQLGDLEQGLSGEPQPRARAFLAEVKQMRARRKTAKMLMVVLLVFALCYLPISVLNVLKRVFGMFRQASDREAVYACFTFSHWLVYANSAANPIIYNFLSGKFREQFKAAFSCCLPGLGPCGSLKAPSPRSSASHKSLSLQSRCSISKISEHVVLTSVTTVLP

SMILES	half-life [1] [h]	Kb (human orexin 2 receptor) [nM]	OX2R Kb/OX1R Kb (human Orexin 1 receptor)	Kb (human Orexin 1 receptor; Orexin A concentration 0.5 nM) [nM]	Kb (human Orexin 1 receptor; Orexin A concentration 50 nM) [nM]
CC[C@@H](CNc1ccc(C(F)(F)F)cn1)N(CC)C(=O)c1nc(C)ccc1-n1nccn1 [Ex 71 in WO2016/ 034882, reference compound]	0.075	27	–	–	–
CCN(C(=O)c1cc(C(F)(F)F)cnc1-n1cccn1)[C@@H](C)COc1ccc(C(F)(F)F)cn1 [Example 3]	1.38	212	177	1.2	1.2
CCN(C(=O)c1nc(C)ccc1-n1nccn1)[C@@H](C)COc1ccc(C(F)(F)F)cn1 [Example 5]	0.417	59	393	–	0.15
CCN(C(=O)c1cc(F)cnc1-n1nccn1)[C@@H](C)COc1ccc(C(F)(F)F)cn1 [Example 6]	> 2.17	844	–	1.2	1.5
CCN(C(=O)c1nc(C)ccc1-n1nccn1)[C@@H](C)COc1ccc(Cl)cn1 [Example 8]	0.417	71	158	–	0.45
CCN(C(=O)c1cnc(C)nc1-c1ccccc1)[C@@H](C)COc1cnc(C(F)(F)F)cn1 [Example 9]	> 2.17	939	522	1.8	–
CCN(C(=O)c1nc(C)ccc1-n1nccn1)[C@@H](C)COc1cnc(C(F)(F)F)cn1 [Example 10]	> 2.17	749	300	2.5	–
CCN(C(=O)c1cnc(C)nc1-c1ccccc1)[C@@H](C)COc1ncc(C(F)(F)F)cn1 [Example 11]	1.47	1290	860	1.5	–
CCN(C(=O)c1nc(C)ccc1-n1nccn1)[C@@H](C)COc1ncc(C(F)(F)F)cc1F [Example 12]	0.217	206	268	0.77	–
CCN(C(=O)c1ncccc1-c1ccccc1)[C@@H](C)COc1ncc(C(F)(F)F)cn1 [Example 15]	1.6	705	157	4.5	–
CCN(C(=O)c1ccc(C)nc1-n1nccn1)[C@@H](C)COc1ccc(C(F)(F)F)cn1 [Example 17]	0.983	356	1618	–	0.22
CCN(C(=O)c1ncc(C)cc1-c1ccn(C)n1)[C@@H](C)COc1ccc(C(F)(F)F)cn1 [Example 20]	0.4	415	1660	–	0.25
CCN(C(=O)c1cc(F)cnc1-n1nccn1)[C@@H](C)COc1ncc(C(F)(F)F)cc1F [Example 21]	> 2.17	2700	817	3.3	–
CCN(C(=O)c1cc(F)cnc1-n1nccn1)[C@@H](C)COc1ccc(Cl)cn1 [Example 22]	1.37	1010	215	4.7	–
CCN(C(=O)c1nc(C)ccc1-n1nccn1)[C@@H](C)COc1ncc(C(F)(F)F)cn1 [Example 23]	1.83	2900	439	6.6	–
CCN(C(=O)c1c(F)cncc1-n1cccn1)[C@@H](C)COc1ccc(C(F)(F)F)cn1 [Example 24]	0.483	1070	167	6.4	–
